Here are results for 3 compounds from patent US7671027B2, “Use of GnRH agonists to support the luteal phase during infertility treatment” (PregLem S.A., priority 2002, dated 2010).

Like-named read-outs stand apart in the source and are kept apart here. Square brackets hold non-standard residues; d marks the D form. pGlu = O=C1CC[C@@H](C(=O)O)N1

In data set [1] the test system is patients (hypothalamic amenorrhea). The settings on record: nasal administration every 4 hours after IV GnRH induction of ovulation; in half of the patients; cited from earlier work.
Data set [2] concerns patients who did not conceive. The data set can be described thus: Dose finding study: luteal phase serum oestradiol levels. It counts as in vivo, human. From the text: (§1) Patients suffering from unexplained infertility, or from infertility resulting from mild to moderate endometrioisis, or an infertility resulting from a mild or moderate alteration of their partner sperm, and whom have not conceived despite regular sexual intercourses during a period of one or two years, usually undergo medical assistance. The most often used treatment is ovarian stimulation coupled to an IUI (Hughes G. H. 1997, The effectiveness of ovulation induction and intra-uterine insemination in the treatment of persistent infertility: a meta-analysis. Hum Reprod. 12: 1865-1872).
(§2) A prospective, randomised, parallel groups dose finding study was conducted in this patient population.
(§3) The number and the size of each follicle was recorded.
(§4) Between 12 and 48 hours after triggering ovulation, the patient's partner provided a sperm sample, after 2 to 5 days of abstinence. Motile sperm cells were separated from seminal fluid, dead sperm cells, leucocytes, and cellular debris using a suitable method such as a “swim-up” or a Percol gradient. On that same day, the motile sperm cell suspension was used to perform an intra-uterine insemination with a catheter inserted into the uterine cavity via the cervix. The procedure may be repeated on the next day.

The test system of data set [3] is patients who did not conceive. The data set can be described thus: Dose finding study: luteal phase serum progesterone levels. In kind it is in vivo, human.
Source text: as §1, §2, §3, §4

Data set [4] has as its system patients suffering from unexplained infertility, mild to moderate endometrioisis or partner sperm alteration. The data set can be described thus: Dose finding study: luteal phase duration and pregnancy outcome after ovarian stimulation and IUI. It counts as in vivo. As to conditions: for Positive pregnancy test: patients positive/total, day 14 of luteal phase; for Clinical pregnancy: patients/total.
Source text: as §1, §2, §3, §4

Data set [5] deals with patients in ART treatments. As to conditions: cited from earlier work.
The mark [6] stands for this setting: Day 0, buserelin 100 μg/2 days IN.
The mark [7] stands for this setting: Day 0, buserelin 100 μg/3 days IN.
Setting [8] is: Day 1, buserelin 100 μg/2 days IN.
The mark [9] stands for this setting: Day 1, buserelin 100 μg/3 days IN.
The mark [10] stands for this setting: Day 4, buserelin 100 μg/2 days IN.
[11] abbreviates: Day 4, buserelin 100 μg/3 days IN.
[12] abbreviates: Day 7, buserelin 100 μg/2 days IN.
The mark [13] stands for this setting: Day 7, buserelin 100 μg/3 days IN.
Where [14] appears, read: Day 9, buserelin 100 μg/2 days IN.
[15] abbreviates: Day 9, buserelin 100 μg/3 days IN.
[16] abbreviates: Day 11, buserelin 100 μg/2 days IN.
Setting [17] is: Day 11, buserelin 100 μg/3 days IN.
Setting [18] is: Day 11, buserelin 100 μg/day IN.
Setting [19] is: Day 14, buserelin 100 μg/2 days IN.
Where [20] appears, read: Day 14, buserelin 100 μg/3 days IN.
[21] abbreviates: Day 14, buserelin 100 μg/day IN.

Consider “<Glu^1-His^2-Trp^3-Ser^4-Tyr^5-His^6-Leu^7-Arg^8-Pro^9-Gly^10-NH2 (SEQ ID NO: 1) ([pGlu]HWSYHLRPG-NH2; SMILES CC(C)C[C@H](NC(=O)[C@H](Cc1c[nH]cn1)NC(=O)[C@H](Cc1ccc(O)cc1)NC(=O)[C@H](CO)NC(=O)[C@H](Cc1c[nH]c2ccccc12)NC(=O)[C@H](Cc1c[nH]cn1)NC(=O)[C@@H]1CCC(=O)N1)C(=O)N[C@@H](CCCNC(=N)N)C(=O)N1CCC[C@H]1C(=O)NCC(N)=O; listed as Homo sapiens) [native GnRH, synthetic, native GnRH decapeptide]”, for which the “support of the luteal phase” value in data set [1] is recorded as “completely ineffective”.
Take `CCNC(=O)[C@@H]1CCCN1C(=O)[C@H](CCCNC(=N)N)NC(=O)[C@H](CC(C)C)NC(=O)[C@@H](COC(C)(C)C)NC(=O)[C@H](Cc1ccc(O)cc1)NC(=O)[C@H](CO)NC(=O)[C@H](Cc1c[nH]c2ccccc12)NC(=O)[C@H](Cc1cnc[nH]1)NC(=O)[C@@H]1CCC(=O)N1` [Buserelin, <Glu^1-His^2-Trp^3-Ser^4-Tyr^5-D-Ser(t-But)^6-Leu^7-Arg^8-Pro^9-EA (SEQ ID NO: 2)]: the “Luteal phase serum oestradiol level (mean ± SD)” value was found to be 247 ± 79 pg/mL in data set [2] (setting [6]); 182 ± 76 pg/mL in data set [2] (setting [7]); 175 ± 071 pg/mL in data set [2] (Day 0, buserelin 100 μg/day IN); 164 ± 75 pg/mL in data set [2] (setting [8]); 325 ± 160 pg/mL in data set [2] (setting [9]); 139 ± 77 pg/mL in data set [2] (setting [10]). Moreover, the “Luteal phase serum oestradiol level (mean ± SD)” value was found to be 106 ± 61 pg/mL in data set [2] (setting [11]); 179 ± 101 pg/mL in data set [2] (Day 4, buserelin 100 μg/day IN); 70 ± 19 pg/mL in data set [2] (setting [12]); 144 ± 118 pg/mL in data set [2] (setting [13]); 163 ± 30 pg/mL in data set [2] (Day 7, buserelin 100 μg/day IN); 65 ± 15 pg/mL in data set [2] (setting [14]). Also, the “Luteal phase serum oestradiol level (mean ± SD)” value stood at 109 ± 88 pg/mL in data set [2] (setting [15]); 232 ± 77 pg/mL in data set [2] (Day 9, buserelin 100 μg/day IN); 75 ± 4 pg/mL in data set [2] (setting [16]); 123 ± 61 pg/mL in data set [2] (setting [17]); 200 ± 30 pg/mL in data set [2] (setting [18]); 124 ± 68 pg/mL in data set [2] (setting [19]). Also, the “Luteal phase serum oestradiol level (mean ± SD)” value in data set [2] (setting [20]) was 82 ± 31 pg/mL; in data set [2] (setting [21]) it was 154 ± 85 pg/mL. For the same compound, the “Luteal phase serum progesterone level (mean ± SD)” value in data set [3] (setting [6]) came to 0.9 ± 0.7 ng/mL; in data set [3] (setting [7]), 0.7 ± 0.3 ng/mL; in data set [3] (Day 0, buserelin 100 μg/day IN) it was 1.1 ± 0.4 ng/mL; in data set [3] (setting [8]) it was 1.3 ± 0.8 ng/mL; in data set [3] (setting [9]), 0.9 ± 0.2 ng/mL; in data set [3] (Day 1, buserelin 100 μg/day IN), 1.2 ± 0.3 ng/mL. Besides, the “Luteal phase serum progesterone level (mean ± SD)” value in data set [3] (setting [10]) is 7.6 ± 3.2 ng/mL; in data set [3] (setting [11]), 5.1 ± 2.0 ng/mL; in data set [3] (Day 4, buserelin 100 μg/day IN), 6.2 ± 2.3 ng/mL; in data set [3] (setting [12]) it was 11.7 ± 4.6 ng/mL; in data set [3] (setting [13]), 11.5 ± 3.6 ng/mL; in data set [3] (Day 7, buserelin 100 μg/day IN) it was 13.9 ± 2.9 ng/mL. For the same compound, the “Luteal phase serum progesterone level (mean ± SD)” value in data set [3] (setting [14]) came to 8.2 ± 6.4 ng/mL; in data set [3] (setting [15]), 10.8 ± 6.6 ng/mL; in data set [3] (Day 9, buserelin 100 μg/day IN), 16.2 ± 7.5 ng/mL; in data set [3] (setting [16]), 8.3 ± 6.5 ng/mL; in data set [3] (setting [17]), 10.0 ± 3.7 ng/mL; in data set [3] (setting [18]), 14.1 ± 3.3 ng/mL. Further, the figures for the “Luteal phase serum progesterone level (mean ± SD)” value in data set [3] (setting [19]), in data set [3] (setting [20]) and in data set [3] (setting [21]) were 5.8 ± 4.7 ng/mL, 3.3 ± 2.4 ng/mL and 8.4 ± 4.3 ng/mL, respectively. Also, the “luteal support, summary of tables 1-3” value in data set [4] (buserelin 100 μg IN once a day for 14 days, compared with the other groups) is “a longer luteal phase, higher progesterone and oestradiol levels in late luteal phase and a trend toward a higher clinical pregnancy rate”. Besides, the Positive pregnancy test in data set [4] (buserelin 100 μg/2 days IN) is 2/6; in data set [4] (buserelin 100 μg/3 days IN), 1/5; in data set [4] (buserelin 100 μg/day IN), 2/6. For the same compound, the Clinical pregnancy in data set [4] (buserelin 100 μg/2 days IN) is 1/6; in data set [4] (buserelin 100 μg/3 days IN), 0/5; in data set [4] (buserelin 100 μg/day IN), 2/6. Besides, in data set [4] (buserelin 200 μg IN trigger, then 100 μg/day IN for 14 days, n=6), the “Luteal phase duration (mean ± SD)” value amounted to 15.3 ± 0.5 days. Besides, the “adverse local reactions of intra-nasal administration” value in data set [4] (self-administered intra-nasal buserelin 100 μg) was “did not carry the risk of adverse local reactions such as pain and abces”.
For `CC(=O)[C@H]1CC[C@H]2[C@@H]3CCC4=CC(=O)CC[C@]4(C)[C@H]3CC[C@]12C` [progesterone], the “relative efficacy of IM progesterone vs vaginal progesterone” value in data set [5] (C.I. of 1.02-1.75, in favor of the IM route (p<0.05)) was 1.33. Also, the “odds to obtain a pregnancy compared to no luteal support” value in data set [5] (progesterone IM, CI: 1.36-4.27, p<0.05) is recorded as 2.38; in data set [5] (vaginal route, C.I. of 0.95-4.67 (NS)), 2.11.
